In general, IC50 refers to the concentration needed to halve the response being measured.

For one molecule, IC50 results are on record in BindingDB's records for doi:10.1021/jm00164a014 (Wellcome Research Laboratories, 1990).

For one assay, the target named is ATIC (Sus scrofa). The assay is described as follows: Inhibition activity against AICAR formyltransferase from hog liver.
The target in assay [1] is Trifunctional purine biosynthetic protein adenosine-3 (Mus musculus) (UniProt Q64737). Kind of assay: Inhibition activity against Glycinamide ribonucleotide transformylase (GAR-TFase) from L cell.

Structures are written as SMILES.

Sequence of Trifunctional purine biosynthetic protein adenosine-3 (Mus musculus) (Q64737 whole entry, looked up): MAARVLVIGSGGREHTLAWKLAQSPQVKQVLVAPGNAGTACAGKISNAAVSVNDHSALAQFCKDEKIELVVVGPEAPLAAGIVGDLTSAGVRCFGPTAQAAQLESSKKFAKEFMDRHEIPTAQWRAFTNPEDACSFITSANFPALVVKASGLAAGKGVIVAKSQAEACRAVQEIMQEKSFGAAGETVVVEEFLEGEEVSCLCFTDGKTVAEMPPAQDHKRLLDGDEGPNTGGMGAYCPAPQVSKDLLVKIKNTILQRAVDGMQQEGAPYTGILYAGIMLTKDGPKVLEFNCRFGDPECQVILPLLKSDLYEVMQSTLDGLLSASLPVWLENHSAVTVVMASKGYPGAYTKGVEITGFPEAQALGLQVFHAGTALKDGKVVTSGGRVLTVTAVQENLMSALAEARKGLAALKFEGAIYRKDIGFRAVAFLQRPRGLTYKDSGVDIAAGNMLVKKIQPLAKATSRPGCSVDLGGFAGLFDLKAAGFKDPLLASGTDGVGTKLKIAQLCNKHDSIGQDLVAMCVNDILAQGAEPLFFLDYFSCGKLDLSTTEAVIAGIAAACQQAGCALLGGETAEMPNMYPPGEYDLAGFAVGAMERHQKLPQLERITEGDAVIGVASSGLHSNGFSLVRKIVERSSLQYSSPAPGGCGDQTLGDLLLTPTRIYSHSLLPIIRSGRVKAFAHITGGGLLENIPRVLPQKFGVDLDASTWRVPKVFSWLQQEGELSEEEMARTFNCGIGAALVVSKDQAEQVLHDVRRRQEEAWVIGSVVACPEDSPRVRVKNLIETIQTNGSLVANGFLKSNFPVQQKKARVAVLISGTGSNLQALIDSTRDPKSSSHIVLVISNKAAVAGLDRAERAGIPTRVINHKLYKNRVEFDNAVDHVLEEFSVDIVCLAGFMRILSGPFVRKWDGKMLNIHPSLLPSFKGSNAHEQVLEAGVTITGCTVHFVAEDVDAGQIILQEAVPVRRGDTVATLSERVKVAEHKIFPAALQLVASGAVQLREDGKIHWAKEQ

Turning to `CN(CCCc1c(N)nc(N)[nH]c1=O)c1ccc(C(=O)NC(CCC(=O)O)C(=O)O)cc1` (configuration not stated), the figures for the IC50 (on ATIC (Sus scrofa); in assay [1]) were 68 µM and 4.3 µM, respectively.
